The results in this text go back to patent EP1733725B2, “Pharmaceutical solution comprising ritonavir, a solvent (long chain fatty acid) and water” (ABBOTT LABORATORIES, priority 1999, dated 2000).

The nature of the data set: oral bioavailability in dogs. Type of data set: in vivo, beagle dogs. Particulars: dog, 5 mg/kg. The protocol:
Protocol for Oral Bioavailability
Dogs (beagle dogs, mixed sexes, weighing 7-14 kg) were fasted overnight prior to dosing, but were permitted water ad libitum. Each dog received a 100 µg/kg subcutaneous dose of histamine approximately 30 minutes prior to dosing. Each dog received a single dosage form corresponding to a 5 mg/kg dose of the drug. The dose was followed by approximately 10 milliliters of water. Blood samples were obtained from each animal prior to dosing and 0.25, 0.5, 1.0, 1.5, 2, 3, 4, 6, 8, 10, and 12 hours after drug administration. The plasma was separated from the red cells by centrifugation and frozen (-30 °C) until analysis. Concentrations of parent drug were determined by reverse phase HPLC with low wavelength UV detection following liquid-liquid extraction of the plasma samples. The parent drug area under the curve was calculated by the trapezoidal method over the time course of the study. The absolute bioavailability of each test composition as calculated by comparing the area under the curve after oral dosing to that obtained from a single intravenous dose. Each capsule or capsule composition was evaluated in a group containing at least six dogs; the values reported are averages for each group of dogs.

Like-named read-outs stand apart in the source and are kept apart here.

In general, bioavailability refers to the share of a dose that reaches the circulation, judged against a reference dose that is usually intravenous. For the molecule `CC(C)c1nc(CN(C)C(=O)NC(C(=O)NC(Cc2ccccc2)CC(O)C(Cc2ccccc2)NC(=O)OCc2cncs2)C(C)C)cs1` (stereo not drawn) [bistosylate], the bioavailability (in vivo, administered as an unformulated solid in a capsule dosage form, 5 mg/kg oral dose in dogs, read-out: bioavailability) was < 2%.
Turning to `CC(C)c1nc(CN(C)C(=O)N[C@H](C(=O)N[C@@H](Cc2ccccc2)C[C@H](O)[C@H](Cc2ccccc2)NC(=O)OCc2cncs2)C(C)C)cs1` [compound of formula III], the bioavailability is, setting by setting: (both sexes, beagle, plasma, administered as an unformulated solid in a capsule dosage form, 5 mg/kg oral dose in dogs, read-out: bioavailability) < 2%; (both sexes, beagle, plasma, solution in pharmaceutically acceptable organic solvents with long chain fatty acid, as encapsulated dosage form (soft elastic capsules or hard gelatin capsules), printed 'as high as about 60% or more', read-out: oral bioavailability) ~60%.
